{
  "source": "patent US20260146232A1",
  "about": "“METHODS FOR PROMOTING HOMING AND ENGRAFTMENT OF HEMATOPOIETIC STEM CELLS” (The Trustees of Indiana University, priority 2022, published 2026)",
  "key": {"[1]": {"test_system": "human CB CD34+ cells", "assay": "Chemotaxis (transwell migration) assay toward SDF-1, CB CD34+ cells", "format": "cell-based", "protocol": "(§1) Chemotaxis assay. Chemotaxis assays were performed in Costar 24-well trans-well plates with 6.5 mm diameter inserts with 5.0 μm pores (Corning, NY, USA). Briefly, 650 μL of IMDM medium (37° C.) that contained 0.5% bovine serum albumin (Sigma-Aldrich) and SDF-1 (0, 50 ng/mL) was added to the bottom well. Cells were suspended at 1×10^5 cells/100 μL in IMDM medium and loaded to the upper chamber of the trans-well. Trans-well plates were placed in a 37° C. incubator with 95% humidity and 5% CO2 for 4 hours. Percent migration was measured using flow cytometry with number of cells in the bottom chamber divided by number of cells placed in the upper chamber. To calculate the percent migration of CB HSCs, phenotypic HSCs was determined by surface staining and flow cytometry analysis. Human CB HSC chemotaxis was calculated as number of HSCs in the bottom chamber divided by number of HSCs loaded in the upper chamber. For AMD3100 administration, cells were treated with 5 μg/mL AMD3100 (239820, Sigma-Aldrich) for 30 min right before the chemotaxis assay."}, "[2]": {"test_system": "human CB CD34+ cells", "assay": "Homing assay of treated human CB CD34+ cells in NSG mice", "format": "in vivo", "details": "500,000 cells", "protocol": "Homing assay. Homing of human CB CD34^+ cells was evaluated in NSG mice. Molecular compounds treated or siRNA transfected human CB CD34+ cells (500,000 for each mouse) were intravenously injected into sub-lethally irradiated (350 cGy) NSG mice. After 24 h, these recipient mice were sacrificed, BM cells from each mouse were collected. Cells were stained with anti-human CD45 antibody, then resuspended in 1% formaldehyde buffer. Flow cytometry analysis was performed to determine the percentage of human CD45^+ cells. BM cells from non-transplanted NSG mice served as negative controls."}, "[3]": {"test_system": "m6A labelled CXCR4", "assay": "m6A enrichment on CXCR4 (m6A IP combined with RT-qPCR)", "format": "cell-based, human", "protocol": "M6A-RNA Immunoprecipitation. MeRIP analysis was used as previously described^15. Briefly, the total RNAs were extracted, and then RNA concentration was adjusted to 1 μg/μl. RNA was fragmented into ˜100 nt size and these RNA were immunoprecipitated with the anti-m6A antibody according to the standard protocol of the Magna MeRIP m6A Kit (Merck Millipore, 17-10499). M6A enrichment was determined by qPCR analysis."}, "[4]": {"test_system": "phenotypic HSC (CD34+ CD38- CD45RA- CD90+ CD49f+)", "assay": "Chemotaxis (transwell migration) assay toward SDF-1, phenotypic HSCs", "format": "cell-based, human", "protocol": "as §1"}, "[5]": {"test_system": "YTHDF2", "assay": "Relative YTHDF2 expression level in human CB CD34+ cells", "format": "cell-based", "details": "siRNA 2 μM electroporated into human CB CD34+ cells", "source_text": "(§2) Human CD34^+ CB cell collection and culture. Umbilical CB units were supplied by Cleveland Cord Blood Bank and CordUse, Orlando, FL, USA. All studies were approved by the institutional review board of the IUSM. Mononuclear cells were isolated by density gradient centrifugation and CD34^+ cells were isolated by immunomagnetic selection kit (Miltenyi Biotec, 130-046-702). […] For molecular compound treatment, all reagents were ordered from Cayman Chemical (Ann Arbor, MI, USA). Briefly, molecular compounds were added in the initiation of human CB CD34^+ cells culture, the time and concentration of each molecular compound for cell treatment was shown in figure legends.\n(§3) RNA extraction and real-time PCR. After cells were harvested by FACS, RNA was extracted by a RNeasy Mini Kit following manufacturer's protocol (Qiagen, 74106). Total RNA was reverse-transcribed by use of Superscript III kit (ThermoFisher, 18080093). Quantitative real-time PCR reactions were performed by SYBR Green PCR Master Mix (Thermo Fisher, Florence, KY, USA) and an Agilent Mx3000P QPCR System. Expression of housekeeping gene GAPDH was used as an internal control. Data are shown as relative mRNA level normalized to levels in vehicle control, set to 1."}, "[6]": {"test_system": "YTHDF2 and CXCR4", "assay": "YTHDF2 binding level of CXCR4 (YTHDF2 RIP combined with RT-qPCR)", "format": "cell-based, human", "protocol": "RNA immunoprecipitation. RNA immunoprecipitation was performed as previously described^14. Briefly, 0.5-1×10^6 collected human CD34^+ cells were lysed in buffer A (20 mM Tris-Cl, pH 8.0; 100 mM NaCl, 1 mM EDTA, 0.5% NP-40, protease and RNase inhibitors) for 20 min at 4° C. After centrifugation for 5 min, 1/10th volume of cell lysate was saved as input. Anti-YTHDF2 (Abcam, ab220163) was prebound to the protein A/G beads and then reacted with the rest of the cell lysate overnight at 4° C. After elution from the beads, the RNA samples were precipitated with ethanol and dissolved in RNase-free water. RNAs were further purified with RNA Clean and Concentrator-5 (Zymo, R1013). The relative CXCR4 enrichment was determined by calculating the Ct values of the RIP sample relative to the input sample. Expression of non-m6a housekeeping gene ACTB was used as an internal control. Data are shown as relative binding level normalized to levels in sh-Control group, set to 1."}, "[7]": {"test_system": "CXCR4", "assay": "Surface CXCR4 protein level (MFI) by flow cytometry", "format": "cell-based, human", "details": "for CXCR4 protein level: siRNA knockdown", "source_text": "as §2\nFlow cytometry. Fresh or cultured CB cells were sorted for different phenotypes by using the following antibodies. Antibodies were used to detect CD34 (BV786, BD Biosciences, 744741), CD34 (FITC, BD Biosciences, 340668), CD45RA (Taxe-red, BD Biosciences, 562298), CD90 (BV421, BD Biosciences, 562556), CD49f (cy5.5, BD Biosciences, 562495), CD38 (PE, BD Biosciences, 560981). CD3 (BV421, BD Biosciences, 562427), CD33 (PE, BD Biosciences, 555450), CD19 (PE, BD Biosciences, 555413), CXCR4 (APC, BD Biosciences, 555976) and CD45 (APC, BD Biosciences, 555485). Gating strategy of phenotypic HSCs were shown in supplementary FIG. 2B."}, "[8]": {"test_system": "CXCR4", "assay": "CXCR4 RNA level in human CB CD34+ cells", "format": "cell-based", "details": "YTHDF2 knockdown by siRNA", "protocol": "as §3, with “1. SEQ ID NO: 1-16 are the primer sequences utilized.” for “1.”"}, "[9]": {"test_system": "human CB CD34+ cells", "assay": "Long-term engraftment / limiting dilution analysis (LDA) in NSG mice", "format": "in vivo", "protocol": "Limiting dilution analysis (LDA). Frequency of human SCID repopulating cells (SRCs) was determined by LDA as reported before. Increasing doses of GFP overexpressing CD34^+ cells (2500, 5000 or 10000 cells) were intravenously injected into sublethally irradiated NSG recipient mice (350 cGy; 137Cs source, single dose). Four months after transplantation, the percentage of GFP^+ human CD45^+ cell chimerism was analyzed by immunostaining and flow cytometry. For long-term engraftment assays that assess the self-renewal capacity of HSC, 3×10^6 BM cells from primary recipients of the 10000-cell group were intravenously transplanted into secondary sub-lethally irradiated NSG recipient mice."}, "[10]": {"test_system": "FTO", "assay": "Relative FTO expression level by realtime PCR", "format": "cell-based", "details": "AGII 4 μM, 20 hours, human CB CD34+ cells", "protocol": "Human CD34^+ CB cell collection and culture. Umbilical CB units were supplied by Cleveland Cord Blood Bank and CordUse, Orlando, FL, USA. All studies were approved by the institutional review board of the IUSM. Mononuclear cells were isolated by density gradient centrifugation and CD34^+ cells were isolated by immunomagnetic selection kit (Miltenyi Biotec, 130-046-702). The purity of human CD34^+ CB cells was over 90% and the cells were cultured in StemSpanII serum-free medium ([…] Technologies, 09650) supplemented with 100 ng/mL stem cell factor (SCF), 100 ng/mL FMS-like tyrosine kinase 3 ligand (Flt3L) and 100 ng/mL thrombopoietin (TPO). For molecular compound treatment, all reagents were ordered from Cayman Chemical (Ann Arbor, MI, USA). Briefly, molecular compounds were added in the initiation of human CB CD34^+ cells culture, the time and concentration of each molecular compound for cell treatment was shown in figure legends.\nas §3, with “Expression of housekeeping gene GAPDH was used as an internal control. Data are shown as relative mRNA level normalized to levels in vehicle control, set to 1.” left out"}, "[11]": {"test_system": "CB CD34+ cells", "assay": "Colony-forming unit (CFU) assay", "format": "cell-based, human", "details": "AGII-treated CB CD34+ cells"}, "[12]": {"details": "AGII-treated human CB CD34+ cells"}},
  "data": [
    {"substance": "5′-TTGGCTATTGGGAACGTCCTT-3′ (partner strand not given here) [siRNA]", "values": [
      {"measurement": "migration of CB CD34+ cells to SDF-1", "setting": "[1]; siRNA transfected cells", "result": "significant migration"},
      {"measurement": "human CB CD34+ cell homing in NSG mice", "setting": "[2]; siRNA transfected, 24 hours", "result": "enhanced"},
      {"measurement": "expression level of m6A labelled CXCR4", "setting": "[3]; YTHDF2 knockdown by siRNA", "result": "greatly increased"},
      {"measurement": "migration to SDF-1 in the HSC population", "setting": "[4]; siRNA transfected cells, SDF-1 50 ng/mL", "result": "Enhanced migration"},
      {"measurement": "YTHDF2 expression at the RNA and protein level", "setting": "[5]", "result": "efficiently downregulated"},
      {"measurement": "binding level of YTHDF2 and CXCR4", "setting": "[6]; YTHDF2 knockdown by siRNA", "result": "significantly decreased"},
      {"measurement": "CXCR4 protein level", "setting": "[7]; HSCs (CD34+ CD38- CD45RA- CD49f+ CD90+)", "result": "notably upregulated"},
      {"measurement": "CXCR4 protein level", "setting": "[7]; human CB CD34+ cells", "result": "notably upregulated"},
      {"measurement": "RNA level of CXCR4", "setting": "[8]", "result": "significantly upregulated"},
      {"measurement": "engraftment in secondary NSG mice", "setting": "[9]; BM cells from siRNA transfected group", "result": "enhanced engraftment"},
      {"measurement": "increase in number of functionally detectable SRCs compared with control", "setting": "[9]; siRNA transfected group", "result": "~4", "unit": "fold"},
      {"measurement": "SRC frequency (Poisson distribution analysis)", "setting": "[9]; siRNA transfected group, control 1/2439", "result": "1/667"},
      {"measurement": "number of SRCs", "setting": "[9]; siRNA transfected group, control 410", "result": 1478, "unit": "SRCs in 1×10^6 cells"},
      {"measurement": "human myeloid and B-cell chimerism", "setting": "[9]; siRNA transfected, BM 4 months", "result": "significantly increased"},
      {"measurement": "engraftment vs control group", "setting": "[9]; siRNA transfected, PB at 2 and 4 months, BM at 4 months", "result": "enhanced engraftment"}
    ]},
    {"substance": "Angiotensin II [AGII, peptide hormone of the RAAS system]", "values": [
      {"measurement": "human CB CD34+ cell migration toward graded doses of SDF-1", "setting": "[1]; AGII-treated cells", "result": "greatly enhanced"},
      {"measurement": "homing to mouse BM", "setting": "[2]; 20 hours AGII treatment, 24 h after transplantation", "result": "dramatically promoted"},
      {"measurement": "relative m6A labeled CXCR4 level", "setting": "[3]; [12]", "result": "decreased"},
      {"measurement": "chemotaxis to SDF-1 of HSCs", "setting": "[4]; AGII-treated cells", "result": "greatly enhanced"},
      {"measurement": "binding between YTHDF2 and CXCR4", "setting": "[6]; [12]", "result": "decreased"},
      {"measurement": "FTO expression", "setting": "[10]", "result": "significantly upregulated"},
      {"measurement": "colony output vs vehicle", "setting": "[11]", "result": "no significant difference"},
      {"measurement": "protein level of CXCR4", "setting": "[7]; AGII-treated vs vehicle", "result": "upregulates"},
      {"measurement": "engraftment in NSG recipients vs control", "setting": "[9]; AGII-treated cells, 10,000 cells, PB and BM", "result": "significantly increased"},
      {"measurement": "human myeloid and lymphoid cell chimerism", "setting": "[9]; AGII-treated cells, BM 4 months", "result": "increased"},
      {"measurement": "SRC frequency (Poisson distribution analysis)", "setting": "[9]; AGII-treated cells, control 1/3984", "result": "1/1280"},
      {"measurement": "number of SRCs", "setting": "[9]; AGII-treated cells, control 251", "result": 781, "unit": "SRCs"},
      {"measurement": "engraftment in secondary transplantation vs control", "setting": "[9]; AGII-treated cells, secondary NSG mice at 4 months", "result": "enhanced engraftment"}
    ]}
  ]
}
